Source: the supplement of paper PMC13380429

Columns and labels:
Details in all cases: 72 h
Caco-2 [1] = test: cell viability relative to DMSO; higher = less toxic
Calu-3 [2] = test: as above
HepG2 [3] = test: as above
U2OS [4] = test: as above
Vero E6 [5] = test: as above
Calu-3 [6] = test: relative viability EC50 (midpoint between 100% and the lowest measured viability); higher = less toxic
HepG2 [7] = test: as above
U2OS [8] = test: as above
Vero E6 [9] = test: as above
Caco-2 [10] = test: drug sensitivity score (DSS) for viability; higher = more toxic; extreme values may be limits of the assay
Calu-3 [11] = test: as above
HepG2 [12] = test: as above
U2OS [13] = test: as above
Vero E6 [14] = test: as above
Caco-2 [15] = test: relative viability EC50 (midpoint between 100% and the lowest measured viability); higher = less toxic

Compound | cell viability (Caco-2 [1]; 1 nM) [%] | cell viability (Caco-2 [1]; 10 nM) [%] | cell viability (Caco-2 [1]; 100 nM) [%] | cell viability (Caco-2 [1]; 1000 nM) [%] | cell viability (Caco-2 [1]; 10000 nM) [%] | cell viability (Calu-3 [2]; 1 nM) [%] | cell viability (Calu-3 [2]; 10 nM) [%] | cell viability (Calu-3 [2]; 100 nM) [%] | cell viability (Calu-3 [2]; 1000 nM) [%] | cell viability (Calu-3 [2]; 10000 nM) [%] | cell viability (HepG2 [3]; 1 nM) [%] | cell viability (HepG2 [3]; 10 nM) [%] | cell viability (HepG2 [3]; 100 nM) [%] | cell viability (HepG2 [3]; 1000 nM) [%] | cell viability (HepG2 [3]; 10000 nM) [%] | cell viability (U2OS [4]; 1 nM) [%] | cell viability (U2OS [4]; 10 nM) [%] | cell viability (U2OS [4]; 100 nM) [%] | cell viability (U2OS [4]; 1000 nM) [%] | cell viability (U2OS [4]; 10000 nM) [%] | cell viability (Vero E6 [5]; 1 nM) [%] | cell viability (Vero E6 [5]; 10 nM) [%] | cell viability (Vero E6 [5]; 100 nM) [%] | cell viability (Vero E6 [5]; 1000 nM) [%] | cell viability (Vero E6 [5]; 10000 nM) [%] | relative viability EC50 (Calu-3 [6]) [µM] | relative viability EC50 (HepG2 [7]) [µM] | relative viability EC50 (U2OS [8]) [µM] | relative viability EC50 (Vero E6 [9]) [µM] | drug sensitivity score (Caco-2 [10]) | drug sensitivity score (Calu-3 [11]) | drug sensitivity score (HepG2 [12]) | drug sensitivity score (U2OS [13]) | drug sensitivity score (Vero E6 [14]) | relative viability EC50 (Caco-2 [15]) [µM]
Cc1cc(Nc2nc(N[C@@H](C)c3ccc(F)cc3)c(C#N)cc2F)n[nH]1 [AZ960] | 112 | 109 | 118 | 77.8 | 51.8 | 118 | 103 | 96.1 | 83.9 | 38.9 | 111 | 105 | 96.7 | 43.2 | 33.6 | 104 | 101 | 104 | 76.3 | 27.8 | 99.3 | 99.6 | 100 | 65.9 | 40.9 | 1.51 | 0.422 | 1.33 | 0.883 | 5.4 | 5.8 | 10.9 | 7.4 | 7.4 | 
CC(C)c1ccc(-c2cc(=O)c3ccccc3o2)cc1 [MN-64] | 105 | 98.8 | 105 | 84.9 | 81.1 | 113 | 105 | 97.2 | 96.1 | 72.7 | 91.9 | 97.6 | 94.8 | 94.8 | 65.1 | 102 | 99.4 | 102 | 95.2 | 88.2 | 96.6 | 94.2 | 98.9 | 98 | 61.5 |  |  | > 10 |  | 1.9 | 1.7 | 2.5 | 0.2 | 2.2 | > 10
O=c1cc(N2CCN(c3cccc(C(F)(F)F)c3)CC2)[nH]c(=O)n1C1CCCCC1 [ML179] | 95.5 | 96.8 | 97.2 | 98 | 96.5 |  |  |  |  |  | 100 | 105 | 94.4 | 82.6 | 77.7 | 101 | 97.5 | 100 | 97.9 | 101 | 102 | 101 | 98.4 | 100 | 99.7 |  | > 10 | > 10 | > 10 | 0 |  | 2.7 | 0 | 0 | > 10
COc1cc2ncnc(Oc3cccc(NC(=O)Nc4cc(C(C)(C)C(F)(F)F)on4)c3)c2cc1OC | 102 | 94.1 | 97.5 | 93.2 | 93.8 |  |  |  |  |  | 114 | 93.9 | 110 | 93.7 | 59.8 |  |  |  |  |  | 100 | 97.1 | 108 | 108 | 88.3 |  |  |  | > 10 | 0 |  | 3 |  | 0 | > 10
